Test results as given in US20100227917A1, “EYE DROP CONTAINING DIBENZ[b,e]OXEPIN DERIVATIVE” (priority 2007, published 2010).

Tests used:
Assay type in all cases: physicochemical
[1] = Osmotic pressure measurement with osmometer; conditions: ratio to physiological saline (293 mOsm), after 43 hours
Method: An osmotic pressure was measured using an osmometer (Osmostat OM6040, Arkray, Inc.).
Further, a ratio to the osmotic pressure of physiological saline was calculated according to the following equation.
(osmotic pressure ratio)=(osmotic pressure of test liquid)/(osmotic pressure of physiological saline)(293mOsm)

[2] = pH measurement
Method: (§1) Each of the resulting mixtures was stirred with a magnetic stirrer at room temperature (about 23° C.) for 1 hour, and external observation and pH measurement were carried out. Then, an aqueous solution of sodium hydroxide was added to each mixture to prepare mixtures of pH 4 and 7, and external observation and pH measurement were carried out. Then, the mixtures were left at room temperature (about 23° C.) for 43 hours, and external observation, pH measurement, solubility measurement, and osmotic pressure measurement were carried out.
(§2) Each of the resulting mixtures was stirred with a magnetic stirrer at room temperature (about 23° C.) for 1 hour, and external observation and pH measurement were carried out. Then, an aqueous solution of sodium hydroxide was added to each mixture to prepare a mixture of pH 4, and external observation and pH measurement were carried out. Then, the mixture was left at room temperature (about 23° C.) for 43 hours, and external observation, pH measurement, solubility measurement, and osmotic pressure measurement were carried out in the same manner as in Test Example 1.

[3] = External observation of olopatadine hydrochloride mixtures (Test Examples 1 and 2); conditions: for External appearance after 1 hour stirring: about 23° C.; for External appearance after 43 hours: left at about 23° C.
Method: as §1, §2

[4] = Aqueous solution of 0.9% NaCl, prepared to pH 4
[5] = Buffer at pH 4.0 containing 0.9% NaCl, prepared to pH 4
[6] = Buffer at pH 7.0 containing 0.9% NaCl, prepared to pH 4
[7] = glutamic acid-sodium glutamate buffer at pH 4.0, prepared to pH 4.0
[8] = glutamic acid-sodium glutamate buffer at pH 4.0, prepared to pH 7.0
[9] = glutamic acid-sodium glutamate buffer at pH 7.0, prepared to pH 4.0
[10] = glutamic acid-sodium glutamate buffer at pH 7.0, prepared to pH 7.0
[11] = 100 mg in 10 mL Aqueous solution of 0.9% NaCl
[12] = 100 mg in 10 mL Buffer at pH 4.0 containing 0.9% NaCl
[13] = 100 mg in 10 mL Buffer at pH 7.0 containing 0.9% NaCl
[14] = 100 mg in 10 mL glutamic acid-sodium glutamate buffer at pH 4.0, column prepared to pH 4.0
[15] = 100 mg in 10 mL glutamic acid-sodium glutamate buffer at pH 4.0, column prepared to pH 7.0
[16] = 100 mg in 10 mL glutamic acid-sodium glutamate buffer at pH 7.0, column prepared to pH 4.0
[17] = 100 mg in 10 mL glutamic acid-sodium glutamate buffer at pH 7.0, column prepared to pH 7.0

- Osmotic pressure ratio [1, 4]: 1.085
- Osmotic pressure ratio [1, 5]: 1.167
- Osmotic pressure ratio [1, 6]: 1.201
- Osmotic pressure ratio [1, 7]: 0.290
- Osmotic pressure ratio [1, 8]: 0.403
- Osmotic pressure ratio [1, 9]: 0.270
- Osmotic pressure ratio [1, 10]: 0.379
- pH after 1 hour stirring [2, 11]: 3.0
- pH after 1 hour stirring [2, 12]: 3.6
- pH after 1 hour stirring [2, 13]: 4.1
- pH after 1 hour stirring [2, 14]: 3.3
- pH after 1 hour stirring [2, 15]: 3.3
- pH after 1 hour stirring [2, 16]: 4.0
- pH after 1 hour stirring [2, 17]: 4.0
- pH adjustment (actual measurement value) [2, 4]: 3.8
- pH after 43 hours [2, 4]: 3.7
- pH adjustment (actual measurement value) [2, 5]: 3.8
- pH after 43 hours [2, 5]: 3.8
- pH adjustment (actual measurement value) [2, 6]: 4.1
- pH after 43 hours [2, 6]: 3.9
- pH adjustment (actual measurement value) [2, 7]: 4.1
- pH after 43 hours [2, 7]: 3.9
- pH adjustment (actual measurement value) [2, 8]: 6.9
- pH after 43 hours [2, 8]: 6.9
- pH adjustment (actual measurement value) [2, 9]: 4.0
- pH after 43 hours [2, 9]: 3.7
- pH adjustment (actual measurement value) [2, 10]: 6.9
- pH after 43 hours [2, 10]: 6.9
- External appearance after 1 hour stirring [3, 11]: Turbid in white
- External appearance after 1 hour stirring [3, 12]: Turbid in white
- External appearance after 1 hour stirring [3, 13]: Almost clear
- External appearance after 1 hour stirring [3, 14]: Clear
- External appearance after 1 hour stirring [3, 15]: Clear
- External appearance after 1 hour stirring [3, 16]: Clear
- External appearance after 1 hour stirring [3, 17]: Clear
- External appearance after pH adjustment [3, 4]: Turbid in white
- External appearance after 43 hours [3, 4]: Turbid in white
- External appearance after pH adjustment [3, 5]: Turbid in white
- External appearance after 43 hours [3, 5]: Turbid in white
- External appearance after pH adjustment [3, 6]: Almost clear
- External appearance after 43 hours [3, 6]: Turbid in white
- External appearance after pH adjustment [3, 7]: Clear
- External appearance after 43 hours [3, 7]: Turbid in white
- External appearance after pH adjustment [3, 8]: Turbid in white
- External appearance after 43 hours [3, 8]: Turbid in white
- External appearance after pH adjustment [3, 9]: Clear
- External appearance after pH adjustment [3, 10]: Turbid in white
- External appearance after 43 hours [3, 10]: Turbid in white
Structure (SMILES): CN(C)CC/C=C1/c2ccccc2COc2ccc(CC(=O)O)cc21.Cl [olopatadine hydrochloride, (Z)-11-(3-dimethylaminopropylidene)-6,11-dihydrodibenz[b,e]oxepin-2-acetic acid hydrochloride]
